These results are taken from patent publication US9604973B2, “Anti-cancer polyketide compounds” (priority 2012, dated 2017).

A short description of the data set: Hydrolysis, NMR monitoring. It counts as physicochemical. Conditions: neutral conditions; 10 mM in D2O/DMSO-d6 (10:1) at 37° C. On the procedure: FIG. 18A-18B: Hydrolysis of FD-895 (1a). FIG. 18A) NMR monitoring of the incubation of 10 mM 1a in D2O/DMSO-d6 (10:1) at 37° C. Hydrolysis occurs as marked by a shift of the C11 proton (large to small circles). Assignments of 3a, 3b and 3c were made based on coupling constant and gCOSY analyses. FIG. 18B) LdC-HRMS trace depicting the products at 143 h including acids 3a-3c (mass calcd. for C31H52O10Na=607.3453 m/z) along with unhydrolized 1a (mass calcd. for C31H50O9Na=589.3347 m/z). Exact masses [M+Na]^+ are provided for each peak.
Based on this observation, we turned our efforts to apply conventional SAR techniques to identify analogs with improved stability.

In the case of `CCC(OC)C(C)C1OC1C(O)C(C)/C=C/C=C(\C)C1OC(=O)CC(O)CCC(C)(O)C(OC(C)=O)/C=C/C1C` (stereo not shown) [FD-895], the hydrolysis result is on record as “undergoes hydrolysis under neutral conditions”.
